According to ChEMBL document CHEMBL1158264, “DNA topoisomerase I inhibitors: cytotoxic flavones from Lethedon tannaensis” (J Nat Prod, 1996):
Values after ≈ are worked out from the molar mass of the structure shown. Active and inactive are the calls of the source. The calls are words filed in the database; no cut-off is given here.

Tests used:
[1] = species: Bos taurus; test: Inhibition of calf thymus tubulin assembly
[2] = species: Bos taurus; test: Inhibition of calf thymus DNA topoisomerase 1 assessed as minimum efficient dose
[3] = tested on: P388; test: Cytotoxicity against mouse P388 cells; type: functional, cell-based
[4] = tested on: KB; test: Cytotoxicity against human KB cells; type: functional, cell-based
[5] = tested on: P388; test: Cytotoxicity against mouse P388 cells at 100 ug/mL; type: functional, cell-based
[6] = target: T1, DNA topoisomerase 1 (Homo sapiens) (UniProt P11387); test: Inhibition of DNA topoisomerase 1
T1 sequence (whole entry): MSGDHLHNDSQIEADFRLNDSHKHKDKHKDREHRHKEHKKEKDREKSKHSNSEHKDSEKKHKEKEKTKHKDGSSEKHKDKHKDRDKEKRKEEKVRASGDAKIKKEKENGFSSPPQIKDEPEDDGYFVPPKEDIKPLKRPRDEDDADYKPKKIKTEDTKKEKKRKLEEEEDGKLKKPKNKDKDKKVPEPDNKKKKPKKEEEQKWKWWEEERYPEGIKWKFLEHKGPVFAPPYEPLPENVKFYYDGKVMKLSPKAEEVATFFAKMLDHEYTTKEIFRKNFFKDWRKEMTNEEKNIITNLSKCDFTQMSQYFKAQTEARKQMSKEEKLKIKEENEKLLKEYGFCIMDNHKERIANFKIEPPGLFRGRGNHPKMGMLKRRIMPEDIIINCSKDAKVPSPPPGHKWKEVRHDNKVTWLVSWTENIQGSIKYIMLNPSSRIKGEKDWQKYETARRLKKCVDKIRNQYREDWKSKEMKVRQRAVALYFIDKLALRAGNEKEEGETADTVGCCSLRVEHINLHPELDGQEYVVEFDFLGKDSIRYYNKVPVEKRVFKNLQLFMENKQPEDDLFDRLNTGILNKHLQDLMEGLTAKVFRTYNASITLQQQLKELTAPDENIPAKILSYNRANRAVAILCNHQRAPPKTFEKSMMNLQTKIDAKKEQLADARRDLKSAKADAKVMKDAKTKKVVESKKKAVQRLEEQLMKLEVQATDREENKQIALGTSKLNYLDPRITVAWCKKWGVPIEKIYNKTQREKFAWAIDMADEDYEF

[7] = target: DNA topoisomerase 2-alpha (Homo sapiens) (UniProt P11388); test: Inhibition of DNA topoisomerase 2
Chain of DNA topoisomerase 2-alpha (Homo sapiens) (P11388 whole entry): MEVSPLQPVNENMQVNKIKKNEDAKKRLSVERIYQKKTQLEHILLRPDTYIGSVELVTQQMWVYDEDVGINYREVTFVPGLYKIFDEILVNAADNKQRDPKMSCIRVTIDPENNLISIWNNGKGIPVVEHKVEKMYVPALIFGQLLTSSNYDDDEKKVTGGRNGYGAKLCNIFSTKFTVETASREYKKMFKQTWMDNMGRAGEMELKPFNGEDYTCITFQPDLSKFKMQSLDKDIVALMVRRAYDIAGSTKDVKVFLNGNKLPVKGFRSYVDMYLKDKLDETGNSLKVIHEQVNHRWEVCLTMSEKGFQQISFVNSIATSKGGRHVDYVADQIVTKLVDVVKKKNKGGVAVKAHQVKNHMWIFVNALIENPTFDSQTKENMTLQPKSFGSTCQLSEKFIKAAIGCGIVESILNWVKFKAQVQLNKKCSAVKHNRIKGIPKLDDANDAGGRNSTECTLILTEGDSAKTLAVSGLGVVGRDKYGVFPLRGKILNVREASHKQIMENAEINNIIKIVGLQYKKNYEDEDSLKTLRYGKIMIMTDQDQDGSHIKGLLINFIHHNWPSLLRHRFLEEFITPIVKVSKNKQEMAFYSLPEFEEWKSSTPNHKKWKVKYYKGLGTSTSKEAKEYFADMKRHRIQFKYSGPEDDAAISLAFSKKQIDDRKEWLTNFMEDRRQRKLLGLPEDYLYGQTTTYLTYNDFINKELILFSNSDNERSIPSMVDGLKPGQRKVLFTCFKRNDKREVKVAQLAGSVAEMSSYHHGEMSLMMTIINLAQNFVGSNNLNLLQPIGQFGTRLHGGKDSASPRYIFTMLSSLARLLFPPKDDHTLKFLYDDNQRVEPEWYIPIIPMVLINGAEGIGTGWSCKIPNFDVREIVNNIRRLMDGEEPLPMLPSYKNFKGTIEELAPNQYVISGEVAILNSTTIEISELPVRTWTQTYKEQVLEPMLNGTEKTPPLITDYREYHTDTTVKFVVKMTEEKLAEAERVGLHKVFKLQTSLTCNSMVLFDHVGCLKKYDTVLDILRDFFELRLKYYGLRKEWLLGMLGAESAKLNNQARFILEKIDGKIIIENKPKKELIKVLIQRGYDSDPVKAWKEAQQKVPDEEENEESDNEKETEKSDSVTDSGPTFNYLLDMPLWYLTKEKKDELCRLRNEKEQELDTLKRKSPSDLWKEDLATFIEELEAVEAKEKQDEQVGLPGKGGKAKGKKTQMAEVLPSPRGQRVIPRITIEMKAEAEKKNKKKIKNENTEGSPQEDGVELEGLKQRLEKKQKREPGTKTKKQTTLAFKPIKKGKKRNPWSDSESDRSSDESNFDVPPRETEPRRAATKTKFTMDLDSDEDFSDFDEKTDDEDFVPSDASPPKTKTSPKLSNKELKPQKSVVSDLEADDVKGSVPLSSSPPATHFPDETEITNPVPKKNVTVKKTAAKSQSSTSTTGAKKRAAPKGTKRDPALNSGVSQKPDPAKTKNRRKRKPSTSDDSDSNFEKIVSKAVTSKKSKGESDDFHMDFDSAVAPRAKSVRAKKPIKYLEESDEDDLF

Row | Compound | MED [2] [µg/mL] | IC50 [4] [µg/mL] | Activity [5] | also measured
1 | COc1cc(O)c2c(=O)cc(-c3ccc(O)c(OC)c3)oc2c1 [VELUTIN] | 0.1 |  |  | Activity [1]: inactive; IC50 [3]: 10 µg/mL (≈ 31.8 µM)
2 | COc1cc(O)c2c(=O)cc(-c3cc(O)c(OC)c(OC)c3)oc2c1 [LETHEDOCIN] |  | 16.4 (≈ 47.6 µM) | inactive | 
3 | COc1cccc2c1C(=O)c1c(O)c3c(c(O)c1C2=O)C[C@@](O)(C(=O)CO)C[C@@H]3O[C@H]1C[C@H](N)[C@H](O)[C@H](C)O1 [DOXORUBICIN] |  | 1.5 (≈ 2.76 µM) |  | IC50 [3]: 0.005 µg/mL (≈ 0.0092 µM)
4 | O=c1c(O)c(-c2cc(O)c(O)c(O)c2)oc2cc(O)cc(O)c12 |  |  |  | Activity [6]: Active; Activity [7]: Active
5 | O=c1c(O)c(-c2ccc(O)c(O)c2)oc2cc(O)cc(O)c12 |  |  |  | Activity [6]: Active; Activity [7]: Active
6 | COc1cc(O)c2c(=O)cc(-c3ccc(OC)c(OC)c3)oc2c1 |  | 19.4 (≈ 59.1 µM) | inactive | 
7 | CC[C@@]1(O)C(=O)OCc2c1cc1n(c2=O)Cc2cc3ccccc3nc2-1 [CAMPTOTHECIN] | 0.03 | 0.01 (≈ 0.0287 µM) |  | 
8 | COc1cc(O)c2c(=O)cc(-c3ccc(O)cc3)oc2c1 [GENKWANIN] | > 10 | 8.7 (≈ 30.6 µM) |  | IC50 [3]: 10 µg/mL (≈ 35.2 µM)
9 | O=c1c(O)c(-c2ccc(O)c(O)c2)oc2cc(O)ccc12 |  |  |  | Activity [6]: Active; Activity [7]: Active
10 | COc1ccc(-c2oc3cc(O)c(OC)c(O)c3c(=O)c2OC)cc1O [CENTAUREIDIN] |  | 0.04 (≈ 0.111 µM) |  | 
11 | COc1cc(O)c2c(=O)cc(-c3cc(OC)c(OC)c(OC)c3)oc2c1 [CORYMBOSIN] |  | 19.4 (≈ 54.1 µM) | inactive | 
12 | COc1cc(O)c2c(=O)cc(-c3cc(OC)c(O)c(OC)c3)oc2c1 | 1 | 7.7 (≈ 22.4 µM) | inactive | Activity [1]: inactive
